Earlier results, collected in PubChem BioAssay AID1259409 (Chemical Carcinogenesis Research Information System (CCRIS), 2018).

System: rodent chemically induced tumor inhibition, incidence and multiplicity
Experiment: CCRIS tumor inhibitor studies

## O=c1oc2c(O)c(O)cc3c(=O)oc4c(O)c(O)cc1c4c23
Carcinogen: 7,12-DIMETHYLBENZ[A]ANTHRACENE, 57-97-6, Dose [Inhibitor]: 0, 2000 PPM IN DIET FROM 1 WK PRIOR TO CARCINOGEN TREATMENT TO 3 D POST CARCINOGEN TREATMENT (STUDY DURATION: 42 WK), Route [Inhibitor]: ORAL, Species: FISH, Strain/Sex: RAINBOW TROUT/ MALE, FEMALE, Target Tissue: Type of Lesion: STOMACH: TUMOR, Dose [Carcinogen]: 5.5 PPM IN WATER FOR 1 HR, Promoter: NONE USED
  tumour outcome (control, treated, inhibition, significance): 88%, 78%, 11%, p<0.05
Carcinogen: 7,12-DIMETHYLBENZ[A]ANTHRACENE, 57-97-6, Dose [Inhibitor]: 0, 2000 PPM IN DIET FROM 3 WK PRIOR TO CARCINOGEN TREATMENT TO 3 D POST CARCINOGEN TREATMENT (STUDY DURATION: 42 WK), Route [Inhibitor]: ORAL, Species: FISH, Strain/Sex: RAINBOW TROUT/ MALE, FEMALE, Target Tissue: Type of Lesion: LIVER: TUMOR, Dose [Carcinogen]: 4.16 PPM IN WATER FOR 1 HR, Promoter: NONE USED
  tumour outcome (control, treated, inhibition, significance): 7%, 22%, -214%, p<0.001
Carcinogen: 7,12-DIMETHYLBENZ[A]ANTHRACENE, 57-97-6, Dose [Inhibitor]: 0, 2000 PPM IN DIET FROM 3 WK PRIOR TO CARCINOGEN TREATMENT TO 3 D POST CARCINOGEN TREATMENT (STUDY DURATION: 42 WK), Route [Inhibitor]: ORAL, Species: FISH, Strain/Sex: RAINBOW TROUT/ MALE, FEMALE, Target Tissue: Type of Lesion: SWIM BLADDER: TUMOR, Dose [Carcinogen]: 4.16 PPM IN WATER FOR 1 HR, Promoter: NONE USED
  tumour outcome (control, treated, inhibition, significance): 14%, 61%, -336%, p<0.001
Carcinogen: 7,12-DIMETHYLBENZ[A]ANTHRACENE, 57-97-6, Dose [Inhibitor]: O, 2000 PPM IN DIET FROM 3 WK PRIOR TO CARCINOGEN TREATMENT TO 3D POST CARCINOGEN TREATMENT (STUDY DURATION: 42 WK), Route [Inhibitor]: ORAL, Species: FISH, Strain/Sex: RAINBOW TROUT/ MALE, FEMALE, Target Tissue: Type of Lesion: STOMACH: TUMOR, Dose [Carcinogen]: 4.16 PPM IN WATER FOR 1 HR, Promoter: NONE USED
  tumour outcome (control, treated, inhibition, significance): 97%, 94%, 3%, not significant
Carcinogen: (+/-)-1BETA,2ALPHA-DIHYDROXY-3ALPHA,4ALPHA-EPOXY-1,2,3,4-TETRAHYDROBENZO[A]PYRE NE, 78919-11-6, Dose [Inhibitor]: 0, 300 NMOL (TOTAL DOSE) APPLIED 10 MIN PRIOR TO CARCINOGEN DOSE INJECTED AS 1/7, 2/7, AND 4/7 OF THE TOTAL ON DAYS 1, 8, Route [Inhibitor]: INTRAPERITONEAL, Species: MOUSE, Strain/Sex: ICR/MALE, FEMALE, Target Tissue: Type of Lesion: LUNG: TUMOR, Dose [Carcinogen]: 50 NMOL (TOTAL DOSE) INJECTED IN DOSES OF 1/7, 2/7, AND 4/7 ON DAYS 1, 8, AND 15 OF LIFE, RESPECTIVELY, Promoter: NONE USED
  tumour outcome (control, treated, inhibition, significance): 93%, 86%, 8%, not significant
Carcinogen: (+/-)-7BETA,8ALPHA-DIHYDROXY-9ALPHA,10ALPHA-EPOXY-7,8,9,10-TETRAHYDROBENZO[A]PYR ENE, 58917-67-2, Dose [Inhibitor]: 0, 300 NMOL (TOTAL DOSE) APPLIED 10 MIN PRIOR TO CARCINOGEN DOSE INJECTED AS 1/7, 2/7, AND 4/7 OF THE TOTAL ON DAYS 1, 8, Route [Inhibitor]: INTRAPERITONEAL, Species: MOUSE, Strain/Sex: ICR/MALE, FEMALE, Target Tissue: Type of Lesion: LUNG: TUMOR, Dose [Carcinogen]: 15 NMOL (TOTAL DOSE) INJECTED IN DOSES OF 1/7, 2/7, AND 4/7 ON DAYS 1, 8, AND 15 OF LIFE, RESPECTIVELY, Promoter: NONE USED
  tumour outcome (control, treated, inhibition, significance): 86%, 76%, 12%, not significant
Carcinogen: (+/-)-7BETA,8ALPHA-DIHYDROXY-9ALPHA,10ALPHA-EPOXY-7,8,9,10-TETRAHYDROBENZO[A]PYR ENE, 58917-67-2, Dose [Inhibitor]: 0, 1250 NMOL IN 200 µL ACETONE:METHANOL (45:55) ONCE APPLIED 5 MIN PRIOR TO CARCINOGEN DOSE (STUDY DURATION: 21 WK), Route [Inhibitor]: DERMAL, Species: MOUSE, Strain/Sex: CD-1/FEMALE, Target Tissue: Type of Lesion: SKIN: TUMOR, Dose [Carcinogen]: 200 NMOL IN ACETONE:DMSO (90:10) ONCE, Promoter: 12-O-TETRADECANOYLPHORBOL-13-ACETATE, 16561-29-8
  tumour outcome (control, treated, inhibition, significance): 62%, 50%, 19%, not significant
Carcinogen: (+/-)-7BETA,8ALPHA-DIHYDROXY-9ALPHA,10ALPHA-EPOXY-7,8,9,10-TETRAHYDROBENZO[A]PYR ENE, 58917-67-2, Dose [Inhibitor]: 0, 2500 NMOL IN 200 µL ACETONE:METHANOL (45:55) ONCE APPLIED 5 MIN PRIOR TO CARCINOGEN DOSE (STUDY DURATION: 21 WK), Route [Inhibitor]: DERMAL, Species: MOUSE, Strain/Sex: CD-1/FEMALE, Target Tissue: Type of Lesion: SKIN: TUMOR, Dose [Carcinogen]: 200 NMOL IN ACETONE:DMSO (90:10) ONCE, Promoter: 12-O-TETRADECANOYLPHORBOL-13-ACETATE, 16561-29-8
  tumour outcome (control, treated, inhibition, significance): 62%, 43%, 31%, not significant
Carcinogen: (+/-)-7BETA,8ALPHA-DIHYDROXY-9ALPHA,10ALPHA-EPOXY-7,8,9,10-TETRAHYDROBENZO[A]PYR ENE, 58917-67-2, Dose [Inhibitor]: 0, 2500 NMOL IN 200 µL ACETONE:METHANOL (45:55) ONCE APPLIED 30 MIN PRIOR TO CARCINOGEN DOSE (STUDY DURATION: 21 WK), Route [Inhibitor]: DERMAL, Species: MOUSE, Strain/Sex: CD-1/FEMALE, Target Tissue: Type of Lesion: SKIN: TUMOR, Dose [Carcinogen]: 200 NMOL IN ACETONE:DMSO (90:10) ONCE, Promoter: 12-O-TETRADECANOYLPHORBOL-13-ACETATE, 16561-29-8
  tumour outcome (control, treated, inhibition, significance): 53%, 33%, 38%, not significant
Carcinogen: (+/-)-7BETA,8ALPHA-DIHYDROXY-9ALPHA,10ALPHA-EPOXY-7,8,9,10-TETRAHYDROBENZO[A]PYR ENE, 58917-67-2, Dose [Inhibitor]: 0, 2500 NMOL IN 200 µL ACETONE:METHANOL (45:55) ONCE APPLIED 120 MIN PRIOR TO CARCINOGEN DOSE (STUDY DURATION: 21 WK), Route [Inhibitor]: DERMAL, Species: MOUSE, Strain/Sex: CD-1/FEMALE, Target Tissue: Type of Lesion: SKIN: TUMOR, Dose [Carcinogen]: 200 NMOL IN ACETONE:DMSO (90:10) ONCE, Promoter: 12-O-TETRADECANOYLPHORBOL-13-ACETATE, 16561-29-8
  tumour outcome (control, treated, inhibition, significance): 63%, 43%, 32%, not significant
Carcinogen: AZOXYMETHANE, 25843-45-2, Dose [Inhibitor]: 0, 4000 PPM IN DIET BEGINNING PRIOR TO CARCINOGEN DOSE AND CONTINUING FOR DURATION OF STUDY (STUDY DURATION: 54 WK), Route [Inhibitor]: ORAL, Species: RAT, Strain/Sex: F344/MALE, Target Tissue: Type of Lesion: COLON: ADENOCARCINOMA, Dose [Carcinogen]: 15 MG/KG 1/WK FOR 2 WK, Promoter: NONE USED
  tumour outcome (control, treated, inhibition, significance): 72%, 64%, 11%, not calculated
Carcinogen: AZOXYMETHANE, 25843-45-2, Dose [Inhibitor]: 0, 4000 PPM IN DIET BEGINNING PRIOR TO CARCINOGEN DOSE AND CONTINUING FOR DURATION OF STUDY (STUDY DURATION: 54 WK), Route [Inhibitor]: ORAL, Species: RAT, Strain/Sex: F344/MALE, Target Tissue: Type of Lesion: COLON: ADENOMA, Dose [Carcinogen]: 15 MG/KG 1/WK FOR 2 WK, Promoter: NONE USED
  tumour outcome (control, treated, inhibition, significance): 14%, 8%, 43%, not calculated
